Experimental findings from ChEMBL document CHEMBL6127057, “Design and synthesis of Thieno[3, 2-b]pyridinone derivatives exhibiting potent activities against Mycobacterium tuberculosis in vivo by targeting Enoyl-ACP reductase” (Eur J Med Chem, 2024) are described below.

Converted amounts (≈) assume the structure as drawn.

Type in all cases: functional
Test [1] deals with Mycobacterium tuberculosis. Description: Antimycobacterial activity against compound resistant Mycobacterium tuberculosis 8-8B harboring InhA CTG to GTG (L197V) phenotype.
Test [2] concerns Mycobacterium tuberculosis. Description: Selectivity ratio of MIC for compound resistant Mycobacterium tuberculosis 16-4B harboring InhA GCC to GAC (A211D) phenotype to MIC for wild-type Mycobacterium tuberculosis H37Rv.
Test [3] concerns Mycobacterium tuberculosis. Description: Antimycobacterial activity against compound resistant Mycobacterium tuberculosis 16-6B harboring InhA ATC to AGC (150S).
The subject of test [4] is Mycobacterium tuberculosis. In words: Antimycobacterial activity against compound resistant Mycobacterium tuberculosis 16-1B harboring InhA TCG to TTG (S186L).
In test [5] the test system is Mycobacterium tuberculosis. Description: Antimycobacterial activity against compound resistant Mycobacterium tuberculosis 16-4B harboring InhA GCC to GAC (A211D) phenotype.
The test system of test [6] is Mycobacterium tuberculosis. Description: Selectivity ratio of MIC for compound resistant Mycobacterium tuberculosis 16-6B harboring InhA ATC to AGC (150S) phenotype to MIC for wild-type Mycobacterium tuberculosis H37Rv.
For test [7], the system named is Mycobacterium tuberculosis. In words: Selectivity ratio of MIC for compound resistant Mycobacterium tuberculosis 8-8B harboring InhA CTG to GTG (L197V) phenotype to MIC for wild-type Mycobacterium tuberculosis H37Rv.
Test [8] relates to Mycobacterium tuberculosis. In words: Selectivity ratio of MIC for compound resistant Mycobacterium tuberculosis 16-1B harboring InhA TCG to TTG (S186L) phenotype to MIC for wild-type Mycobacterium tuberculosis H37Rv.

With `Cc1cccc(-c2c(O)c3scc(Br)c3[nH]c2=O)c1`, the MIC in test [1] is 32 µg/mL (≈ 95.2 µM); in test [3], 16 µg/mL (≈ 47.6 µM); in test [4], 16 µg/mL (≈ 47.6 µM); in test [5] it was more than 128 µg/mL. Further, the Selectivity ratio entry in test [2], in test [6], in test [7] and in test [8] was “<=16” in each case.
For `CO[C@H]1/C=C/O[C@@]2(C)Oc3c(C)c(O)c4c(O)c(c(/C=N/N5CCN(C)CC5)c(O)c4c3C2=O)NC(=O)/C(C)=C\C=C\[C@H](C)[C@H](O)[C@@H](C)[C@@H](O)[C@@H](C)[C@H](OC(C)=O)[C@@H]1C` [RIFAMPIN], the MIC in test [1] was determined as 0.063 µg/mL (≈ 0.0766 µM); in test [3] it was 0.063 µg/mL (≈ 0.0766 µM); in test [4], 0.063 µg/mL (≈ 0.0766 µM); in test [5], 64 µg/mL (≈ 77.8 µM).
Turning to `NNC(=O)c1ccncc1` [ISONIAZID], the MIC in test [1], in test [3], in test [4] and in test [5] was 0.063 µg/mL (≈ 0.459 µM) each time.
